Test in all cases: NCI tumour cell line growth inhibition, 48 h
Assay [1] concerns COLO 205 colon.
Assay [2] has as its system HOP-62 NSCLC.
Assay [3] has as its system HT29 colon.
Assay [4] relates to MALME-3M melanoma.
Assay [5] has as its system SF-268 CNS.
Assay [6] deals with TK-10 renal.
Assay [7] has as its system NCI/ADR-RES ovarian.
In assay [8] the test system is RPMI-8226 leukemia.
The test system of assay [9] is T-47D breast.
The test system of assay [10] is PC-3 prostate.
Assay [11] concerns HS 578T breast.

The structures appear in SMILES notation.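 Where inhibition never reached the appropriate level, the endpoint shown equals the highest concentration tested. Otherwise, values were interpolated linearly from a five-concentration, 48-hour dose response in 96-well plates. GI50 marks 50% less growth. The concentration for full growth arrest is given as TGI.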 Bounds are passed on as bounds.

`Cc1nc2c(n1Cc1ccc(F)cc1)C(=O)c1ccccc1C2=O`: the TGI in [1] was above 100 µM; in assay [2], above 100 µM; in assay [3], above 100 µM; in assay [4], 31.7 µM; in assay [5], above 100 µM; in assay [6] it was above 100 µM.
Consider `CC1=C(N2CC2)C(=O)C(C)=C(N2CC2)C1=O`, for which the TGI in [1] worked out at 0.822 µM; in [2] it was 1.09 µM; in assay [3], 1 µM; in assay [4] it was 0.541 µM; in assay [7], 0.0574 µM; in assay [8], 9.8 µM. Also, the figures for the TGI in assay [5], in assay [9] and in assay [6] were 1.08 µM, 15.5 µM and 1.5 µM, respectively.
Take `Cc1cc2nc3c(C#N)c4c(c(Cl)n3c2cc1C)CCC4`: the TGI in assay [1] was above 100 µM; in [2], above 100 µM; in assay [4] it was above 100 µM; in assay [7], 46.2 µM; in assay [8] it was 51 µM; in assay [5], 53.3 µM. Further, the TGI is above 100 µM in assay [9] and 70.6 µM in assay [6].
Turning to `COc1ccc(OC)c(CCc2ccccc2CC(=O)O)c1`, the TGI in assay [1], in assay [3], in [4], in assay [8], in assay [5] and in [6] was above 100 µM throughout.
Take `CCCc1cn2c(/C=N/N=C(N)N)c(-c3ccc([N+](=O)[O-])cc3)nc2s1`: the TGI in assay [1] was 1.19 µM; in assay [2], 3.16 µM; in assay [3], above 100 µM; in assay [4], 3.86 µM; in [10] it was 7.01 µM; in assay [8], 2.76 µM. For the same compound, the TGI in assay [9] was 2.71 µM; in assay [6], 3.93 µM.
As to `COc1c(N2CCCCC2)c2c(=O)c3ccccc3oc2c2c3ccccc3n(C)c12`, the TGI in [1], in assay [2], in [11], in assay [3], in assay [4] and in [7] was above 100 µM in each case. Besides, the TGI in assay [10], in assay [8], in [5] and in assay [6] was above 100 µM throughout.
For the compound `CC1=NC(=O)CNN1C1=NNC2(C(=O)N1)c1ccccc1-c1ccccc12`, the TGI in assay [1], in [2], in assay [11], in assay [3], in assay [4] and in assay [7] was above 100 µM in each case. The TGI in assay [10], in assay [5] and in assay [6] was above 100 µM each time.
Consider `O=C1/C(=C/c2cccc([N+](=O)[O-])c2)Cc2ccccc21`, for which the TGI in [1], in assay [2], in [11], in assay [3], in assay [4] and in assay [7] was above 100 µM each time. The TGI in assay [10], in [8], in [5] and in [6] was above 100 µM each time.
As for `CC(C)(CN1CCCCC1)C(=O)CC(SCCS(=O)(=O)O)c1ccccc1` (stereo not drawn), the TGI in assay [1] is 27.6 µM; in assay [2], 62.1 µM; in [11] it was 90.1 µM; in assay [3] it was 31.7 µM; in assay [4], 33.3 µM; in [7], 70.6 µM. Moreover, the TGI in assay [10] was found to be 77.1 µM; in assay [8], 46.9 µM; in assay [5], 65.8 µM; in [6] it was 38.1 µM.
As to `O=C(OCC1CC(C2(O)CCCCC2)C(=O)O1)c1ccccc1` (stereo not drawn), the TGI in [1], in [2], in assay [3], in assay [4], in assay [7] and in [10] was above 100 µM each time. The TGI in assay [8], in assay [5] and in assay [6] was above 100 µM in each case.
On to `COc1cc(Cn2c3ccccc3c3cc(C)cc(OC)c32)cc2c1[nH]c1ccccc12`, for which the TGI is above 25 µM in [1]; 17.4 µM in assay [2]; above 25 µM in assay [3]; above 25 µM in [4]; above 25 µM in assay [8]; above 25 µM in [5]. In assay [6], this compound had a TGI above 25 µM. Also, the GI50 in [2] is 6.63 µM; in [3], 16.9 µM; in [5] it was 17.5 µM.
Regarding `C=C1C(=O)O[C@H]2C1C[C@H](O)/C(C)=C/CC[C@@]1(C)O[C@H]21` (stereo partly drawn), the TGI in assay [1] was found to be 18.2 µM; in assay [2] it was 91.5 µM; in [11], 75.2 µM; in assay [3], 50.9 µM; in [4], 19.5 µM; in assay [7] it was 33.7 µM. Also, the results for the TGI in [8], in [5] and in assay [6] were 31.5 µM, 74.5 µM and 29.9 µM, respectively.
As to `COc1cc2c(c(OC)c1)C(=O)C(=O)C(CC1(C)OCCCO1)=C2`, the TGI is 9.58 µM in assay [1]; 32.6 µM in assay [2]; 35 µM in assay [3]; 20.4 µM in [4]; above 100 µM in [8]; 30.1 µM in [5]. In addition, the TGI in assay [6] was 17.2 µM.
On to `N#CCCN(c1ccc(C=Nc2ccc(C(=O)O)cc2)cc1)S(=O)(=O)c1ccccc1`, for which the TGI in assay [1], in assay [2], in [3], in assay [4], in assay [8] and in [5] was above 100 µM each time. The compound further had a TGI in assay [6] above 100 µM.
Take `C[n+]1ccc2/c(=C\C#N)c3ccccc3n21`: the TGI is 45.4 µM in assay [1]; above 100 µM in assay [2]; 72.1 µM in [3]; 44.6 µM in assay [4]; above 100 µM in assay [7]; above 100 µM in assay [10]. The TGI is 31.3 µM in assay [8], above 100 µM in [5], 32.7 µM in assay [9] and 63.9 µM in [6].

The record behind these values is PubChem BioAssay (NCI).
